Structures are written as SMILES.

Experiment [1] has as its target T1, Inhibitor of nuclear factor kappa-B kinase subunit alpha (Homo sapiens) (UniProt O15111).
T1 sequence (whole entry): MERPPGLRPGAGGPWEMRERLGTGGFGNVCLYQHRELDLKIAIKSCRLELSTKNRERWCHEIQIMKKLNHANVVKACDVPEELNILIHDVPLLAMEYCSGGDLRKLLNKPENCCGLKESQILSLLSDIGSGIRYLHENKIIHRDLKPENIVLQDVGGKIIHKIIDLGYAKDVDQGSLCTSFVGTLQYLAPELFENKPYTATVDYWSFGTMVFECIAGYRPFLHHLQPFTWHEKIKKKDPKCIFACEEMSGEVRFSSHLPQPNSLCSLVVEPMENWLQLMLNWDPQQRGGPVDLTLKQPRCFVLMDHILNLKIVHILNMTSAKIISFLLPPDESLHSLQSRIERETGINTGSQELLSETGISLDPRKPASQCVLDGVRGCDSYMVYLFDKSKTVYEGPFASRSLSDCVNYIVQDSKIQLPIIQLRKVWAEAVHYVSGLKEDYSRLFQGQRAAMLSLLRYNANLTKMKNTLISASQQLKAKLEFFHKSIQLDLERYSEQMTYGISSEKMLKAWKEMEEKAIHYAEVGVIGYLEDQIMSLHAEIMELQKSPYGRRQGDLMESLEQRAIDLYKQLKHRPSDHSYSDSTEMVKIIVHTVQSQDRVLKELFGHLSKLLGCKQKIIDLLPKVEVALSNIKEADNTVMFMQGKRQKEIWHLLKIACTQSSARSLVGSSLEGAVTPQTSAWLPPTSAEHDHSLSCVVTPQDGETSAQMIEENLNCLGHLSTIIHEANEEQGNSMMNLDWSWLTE
Conditions: at 10 µM.

Experiment [2] addresses Serine/threonine-protein kinase 35 (Homo sapiens) (UniProt Q8TDR2). Conditions: at 10 µM.
The target of experiment [3] is Casein kinase I isoform gamma-2 (Homo sapiens) (UniProt P78368). Nature of the experiment: Selectivity interaction (KinomeScan (DiscoverX)) EUB0001049a CSNK1G2. The settings on record: at 1 µM.
Experiment [4] addresses T2, Myosin light chain kinase family member 4 (Homo sapiens) (UniProt Q86YV6).
T2 sequence (whole entry): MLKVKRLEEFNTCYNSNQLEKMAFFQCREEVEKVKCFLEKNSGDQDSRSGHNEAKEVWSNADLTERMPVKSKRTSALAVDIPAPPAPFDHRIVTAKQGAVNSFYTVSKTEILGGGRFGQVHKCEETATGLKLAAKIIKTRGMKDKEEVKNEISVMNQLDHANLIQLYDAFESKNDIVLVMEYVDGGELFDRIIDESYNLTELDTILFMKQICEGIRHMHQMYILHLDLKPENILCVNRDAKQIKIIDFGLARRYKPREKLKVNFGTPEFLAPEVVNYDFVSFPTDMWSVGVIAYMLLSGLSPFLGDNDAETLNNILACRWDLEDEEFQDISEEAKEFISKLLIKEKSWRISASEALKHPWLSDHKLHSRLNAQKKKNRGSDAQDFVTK
Nature of the experiment: Selectivity interaction (KinomeScan (DiscoverX)) EUB0001550a MYLK4. The settings on record: at 1 µM.

Experiment [5] deals with Mitogen-activated protein kinase 9 (Homo sapiens, UniProt P45984). Nature of the experiment: Selectivity interaction (LanthaScreen Eu Kinase Binding Assay) EUB0001632a MAPK9. The settings on record: at 10 µM.
Experiment [6] has as its target T3, Protein arginine N-methyltransferase 7 (Homo sapiens) (UniProt Q9NVM4).
T3 sequence (whole entry): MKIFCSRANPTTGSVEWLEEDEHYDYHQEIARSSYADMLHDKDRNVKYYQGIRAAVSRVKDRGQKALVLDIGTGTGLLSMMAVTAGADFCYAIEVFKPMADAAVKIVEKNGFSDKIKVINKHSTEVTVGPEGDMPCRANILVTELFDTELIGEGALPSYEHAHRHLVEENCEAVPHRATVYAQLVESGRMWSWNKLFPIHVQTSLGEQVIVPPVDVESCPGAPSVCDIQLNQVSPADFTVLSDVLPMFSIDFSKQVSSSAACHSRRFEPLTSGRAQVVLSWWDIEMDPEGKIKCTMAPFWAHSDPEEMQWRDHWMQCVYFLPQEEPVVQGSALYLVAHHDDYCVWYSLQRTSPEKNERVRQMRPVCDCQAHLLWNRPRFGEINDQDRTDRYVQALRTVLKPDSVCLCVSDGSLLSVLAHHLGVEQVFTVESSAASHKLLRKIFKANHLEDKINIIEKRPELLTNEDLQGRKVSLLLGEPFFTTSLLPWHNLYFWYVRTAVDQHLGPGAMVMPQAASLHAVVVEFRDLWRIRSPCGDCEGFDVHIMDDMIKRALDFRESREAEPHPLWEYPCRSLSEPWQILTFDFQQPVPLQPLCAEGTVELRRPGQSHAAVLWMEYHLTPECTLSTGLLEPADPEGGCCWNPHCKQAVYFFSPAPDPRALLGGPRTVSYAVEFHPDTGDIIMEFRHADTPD
Nature of the experiment: Selectivity interaction (Methyltransferase screen (radiometric assays, panel of 8 PRMTs, 21 protein lysine methyltransferases, 3 DNA methyltransferases, and one RNA methyltransferase)) EUB0000272b PRMT7.

For experiment [7], the target named is Cyclin-dependent kinase 5 (Homo sapiens, UniProt Q00535). In words: Selectivity interaction (ActivX KiNativ screen (ex vivo kinase selectivity in human PBMCs)) EUB0001619a CDK5. Format: cell-based. Conditions: PBMC, at 1 µM.
Experiment [8] addresses T4, Tyrosine-protein kinase ZAP-70 (Homo sapiens) (UniProt P43403).
T4 sequence (whole entry): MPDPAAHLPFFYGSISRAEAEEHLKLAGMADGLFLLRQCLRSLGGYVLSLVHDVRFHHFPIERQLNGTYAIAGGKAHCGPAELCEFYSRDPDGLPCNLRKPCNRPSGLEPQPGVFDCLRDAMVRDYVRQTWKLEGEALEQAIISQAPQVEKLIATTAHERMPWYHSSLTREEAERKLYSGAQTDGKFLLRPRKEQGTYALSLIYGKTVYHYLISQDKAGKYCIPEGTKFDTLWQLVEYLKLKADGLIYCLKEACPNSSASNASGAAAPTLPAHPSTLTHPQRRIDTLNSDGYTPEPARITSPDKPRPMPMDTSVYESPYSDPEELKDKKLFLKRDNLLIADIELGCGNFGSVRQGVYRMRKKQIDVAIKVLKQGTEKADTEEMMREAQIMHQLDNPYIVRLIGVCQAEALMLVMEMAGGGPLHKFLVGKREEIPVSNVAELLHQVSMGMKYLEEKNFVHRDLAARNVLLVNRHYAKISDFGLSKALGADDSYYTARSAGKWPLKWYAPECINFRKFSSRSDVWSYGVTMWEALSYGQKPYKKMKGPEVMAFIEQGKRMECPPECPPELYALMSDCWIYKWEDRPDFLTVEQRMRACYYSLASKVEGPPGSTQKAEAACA
In words: Selectivity interaction (ActivX KiNativ screen (ex vivo kinase selectivity in human PBMCs)) EUB0001619a ZAP70. Type of experiment: cell-based. The settings on record: PBMC, at 1 µM.

For experiment [9], the target named is Myosin light chain kinase, smooth muscle (Homo sapiens, UniProt Q15746). In words: Selectivity interaction (KinomeScan (DiscoverX)) EUB0000618a MYLK. The settings on record: at 10 µM.
Myosin light chain kinase, smooth muscle, sequence (Q15746 whole entry): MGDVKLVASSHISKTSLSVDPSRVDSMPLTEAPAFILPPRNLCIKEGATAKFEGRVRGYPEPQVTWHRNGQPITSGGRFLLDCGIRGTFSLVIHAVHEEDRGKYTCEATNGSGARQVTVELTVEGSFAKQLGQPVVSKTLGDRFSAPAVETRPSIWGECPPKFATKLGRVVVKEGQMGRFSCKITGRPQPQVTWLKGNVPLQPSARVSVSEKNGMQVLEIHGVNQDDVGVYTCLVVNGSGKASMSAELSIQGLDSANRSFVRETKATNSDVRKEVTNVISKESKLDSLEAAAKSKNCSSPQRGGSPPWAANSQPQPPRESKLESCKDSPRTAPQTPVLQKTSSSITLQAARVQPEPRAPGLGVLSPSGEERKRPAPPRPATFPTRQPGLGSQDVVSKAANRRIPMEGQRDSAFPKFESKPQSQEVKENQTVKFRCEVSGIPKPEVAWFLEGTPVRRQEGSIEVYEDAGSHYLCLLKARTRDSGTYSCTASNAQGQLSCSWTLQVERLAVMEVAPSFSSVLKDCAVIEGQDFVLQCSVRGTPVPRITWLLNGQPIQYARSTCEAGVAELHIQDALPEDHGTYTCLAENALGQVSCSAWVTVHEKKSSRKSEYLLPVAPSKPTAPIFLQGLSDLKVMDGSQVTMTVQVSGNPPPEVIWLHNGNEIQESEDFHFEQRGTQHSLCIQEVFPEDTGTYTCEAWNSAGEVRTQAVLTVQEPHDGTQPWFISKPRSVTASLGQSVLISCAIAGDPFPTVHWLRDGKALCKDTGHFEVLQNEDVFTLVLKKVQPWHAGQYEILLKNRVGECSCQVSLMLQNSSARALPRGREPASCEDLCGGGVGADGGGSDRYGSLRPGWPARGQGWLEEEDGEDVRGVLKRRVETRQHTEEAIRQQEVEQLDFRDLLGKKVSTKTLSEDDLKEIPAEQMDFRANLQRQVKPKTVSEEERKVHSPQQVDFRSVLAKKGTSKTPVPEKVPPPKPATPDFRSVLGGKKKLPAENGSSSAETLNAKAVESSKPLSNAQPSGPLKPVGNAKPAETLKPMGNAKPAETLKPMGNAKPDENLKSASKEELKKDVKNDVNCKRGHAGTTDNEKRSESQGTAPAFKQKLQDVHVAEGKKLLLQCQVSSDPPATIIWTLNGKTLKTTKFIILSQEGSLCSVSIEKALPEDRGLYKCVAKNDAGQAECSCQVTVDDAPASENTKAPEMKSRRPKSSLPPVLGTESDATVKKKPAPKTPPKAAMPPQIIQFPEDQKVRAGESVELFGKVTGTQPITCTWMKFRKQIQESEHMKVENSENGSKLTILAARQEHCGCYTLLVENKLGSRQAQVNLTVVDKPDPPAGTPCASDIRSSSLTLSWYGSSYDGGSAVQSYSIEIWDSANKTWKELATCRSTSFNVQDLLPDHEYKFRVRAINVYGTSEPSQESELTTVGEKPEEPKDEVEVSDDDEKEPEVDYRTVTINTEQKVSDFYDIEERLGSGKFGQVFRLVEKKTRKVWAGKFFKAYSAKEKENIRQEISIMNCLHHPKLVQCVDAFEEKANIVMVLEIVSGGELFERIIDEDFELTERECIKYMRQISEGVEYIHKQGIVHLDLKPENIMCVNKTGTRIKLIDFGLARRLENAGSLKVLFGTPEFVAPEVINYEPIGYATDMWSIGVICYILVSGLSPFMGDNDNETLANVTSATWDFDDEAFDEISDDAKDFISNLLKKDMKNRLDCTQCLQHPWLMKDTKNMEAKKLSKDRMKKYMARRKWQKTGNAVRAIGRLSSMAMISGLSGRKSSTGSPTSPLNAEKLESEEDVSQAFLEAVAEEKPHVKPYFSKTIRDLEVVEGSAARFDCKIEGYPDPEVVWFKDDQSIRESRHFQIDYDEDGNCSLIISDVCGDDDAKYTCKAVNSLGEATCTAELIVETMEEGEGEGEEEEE

Mitogen-activated protein kinase 9, sequence (P45984 whole entry, looked up): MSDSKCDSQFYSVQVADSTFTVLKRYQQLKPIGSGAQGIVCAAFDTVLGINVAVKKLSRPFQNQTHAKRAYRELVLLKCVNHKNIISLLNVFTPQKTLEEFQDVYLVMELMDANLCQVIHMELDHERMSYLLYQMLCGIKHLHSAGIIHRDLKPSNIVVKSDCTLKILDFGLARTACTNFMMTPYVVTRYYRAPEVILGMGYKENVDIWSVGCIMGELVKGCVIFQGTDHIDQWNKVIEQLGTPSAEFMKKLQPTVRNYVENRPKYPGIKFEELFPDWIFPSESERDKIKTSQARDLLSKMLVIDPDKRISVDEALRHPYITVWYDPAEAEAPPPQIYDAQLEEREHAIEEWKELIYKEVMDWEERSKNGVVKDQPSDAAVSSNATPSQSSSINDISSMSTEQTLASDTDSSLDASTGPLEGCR
Serine/threonine-protein kinase 35 (Homo sapiens), sequence (Q8TDR2 whole entry, canonical isoform): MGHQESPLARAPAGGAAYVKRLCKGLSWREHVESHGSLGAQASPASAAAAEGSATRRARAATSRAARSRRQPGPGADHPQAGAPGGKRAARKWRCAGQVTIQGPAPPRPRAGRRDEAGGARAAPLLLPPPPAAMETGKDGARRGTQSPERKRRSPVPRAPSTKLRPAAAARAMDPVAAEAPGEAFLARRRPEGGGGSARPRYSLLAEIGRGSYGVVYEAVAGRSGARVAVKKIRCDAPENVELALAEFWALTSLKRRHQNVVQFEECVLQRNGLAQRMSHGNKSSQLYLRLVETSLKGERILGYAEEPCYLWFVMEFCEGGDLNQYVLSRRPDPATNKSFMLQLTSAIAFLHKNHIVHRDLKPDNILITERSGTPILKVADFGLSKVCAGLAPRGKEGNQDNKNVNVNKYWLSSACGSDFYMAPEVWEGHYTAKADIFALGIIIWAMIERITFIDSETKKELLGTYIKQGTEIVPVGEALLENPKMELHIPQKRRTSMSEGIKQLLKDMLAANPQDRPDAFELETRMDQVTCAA
Cyclin-dependent kinase 5, sequence (Q00535 whole entry, looked up): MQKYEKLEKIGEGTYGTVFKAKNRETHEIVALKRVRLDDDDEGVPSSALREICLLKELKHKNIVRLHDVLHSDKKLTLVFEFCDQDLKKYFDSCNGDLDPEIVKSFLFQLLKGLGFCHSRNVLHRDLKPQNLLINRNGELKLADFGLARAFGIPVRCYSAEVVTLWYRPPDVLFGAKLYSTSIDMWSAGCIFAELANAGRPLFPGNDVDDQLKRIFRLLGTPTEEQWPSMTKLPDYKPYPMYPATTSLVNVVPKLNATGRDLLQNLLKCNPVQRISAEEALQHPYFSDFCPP
Casein kinase I isoform gamma-2 (Homo sapiens), sequence (P78368 whole entry, looked up, canonical isoform): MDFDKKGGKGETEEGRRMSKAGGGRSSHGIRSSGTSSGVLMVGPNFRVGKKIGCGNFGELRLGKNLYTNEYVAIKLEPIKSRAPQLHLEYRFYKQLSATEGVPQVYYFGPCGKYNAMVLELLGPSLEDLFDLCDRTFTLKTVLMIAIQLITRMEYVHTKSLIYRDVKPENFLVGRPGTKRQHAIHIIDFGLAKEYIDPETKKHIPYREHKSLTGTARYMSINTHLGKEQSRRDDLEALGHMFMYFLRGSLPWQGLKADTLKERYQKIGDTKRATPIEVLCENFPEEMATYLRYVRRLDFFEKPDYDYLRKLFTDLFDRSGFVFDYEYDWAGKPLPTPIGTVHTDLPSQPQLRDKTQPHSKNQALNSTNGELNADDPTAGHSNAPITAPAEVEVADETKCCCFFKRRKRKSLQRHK

With `Cc1cc([C@@H](C)Nc2ccccc2C(=O)O)c2nc(N3CCOCC3)cc(=O)n2c1` [AZD-6482], the % of control in experiment [1] was 100%; in experiment [2], 95%.
The compound `COc1cc(Nc2nc(C)cc(-c3cnn4nc(OC)ccc34)n2)cc(C(F)(F)F)c1` displayed a % of control in experiment [3] of 97%.
In experiment [4], `CN(C)CC#Cc1ccc2[nH]c3c(c2c1)-c1nc(N)ncc1CCC3` registered a % of control of 1.8%.
On to `Cn1cc(-n2cnc3c(NCc4nc5cc(Cl)c(Cl)cc5[nH]4)nc(N4CCOCC4)nc32)cn1`, for which the % of inhibition in experiment [5] was -21.2%.
On to `Cc1cc(C)cc([C@H]2c3cc(C)ccc3NC(=O)CN2C(=O)c2ccc(Br)s2)c1`, for which the % of activity was found to be 97.7% in experiment [6] (at 1 µM) and 100% in [6] (at 10 µM).
With `N#Cc1cccc(-c2c[nH]c3ncnc(N4CCOCC4)c23)c1`, the % of inhibition was 0% in experiment [7] and -33% in experiment [8].
In experiment [9], `O[C@H]1CC[C@H](Nc2ncc3nc(Nc4c(F)cc(F)cc4F)n([C@H]4CCOC4)c3n2)CC1` gave a % of control of 65%.

Values taken from ChEMBL document CHEMBL5465560, “Selectivity Literature for EUbOPEN Chemogenomic Library” (2024).
